Assay results published in ChEMBL document CHEMBL1201862, “PubChem BioAssay data set” (2004).
The source made the active and inactive calls.

What was measured:
Streptokinase A = biological target: T1, Streptokinase A (Streptococcus pyogenes serotype M1, UniProt P10520); assay: S. pyogenes streptokinase expression inhibitors, potency, dose response, plasminogen activation absorbance, OD405 (AID 1914); assay type: functional, Streptococcus pyogenes M1 GAS;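 further: secreted streptokinase activity via plasminogen activation per viability signal from cell pellet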
T1 sequence (P10520 whole entry): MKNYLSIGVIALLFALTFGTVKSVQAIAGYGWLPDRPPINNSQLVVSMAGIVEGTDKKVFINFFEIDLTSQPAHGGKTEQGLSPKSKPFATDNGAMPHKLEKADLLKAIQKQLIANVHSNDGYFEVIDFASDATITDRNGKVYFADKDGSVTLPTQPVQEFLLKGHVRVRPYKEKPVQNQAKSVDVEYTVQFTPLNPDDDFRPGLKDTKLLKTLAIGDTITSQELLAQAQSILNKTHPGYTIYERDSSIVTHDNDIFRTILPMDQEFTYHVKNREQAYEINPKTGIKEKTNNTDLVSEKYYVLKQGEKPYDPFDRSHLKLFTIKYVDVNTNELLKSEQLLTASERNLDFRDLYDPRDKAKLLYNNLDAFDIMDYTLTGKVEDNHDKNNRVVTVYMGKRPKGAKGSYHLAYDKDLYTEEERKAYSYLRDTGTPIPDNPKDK

Streptococcus = assay: Group A Streptococcus viability loss, dose response, counter-screen for streptokinase expression inhibitor project, luminescence, BacTiterGlo (AID 1915); assay type: functional, organism-based;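 further: potency for reduction of bacterial viability or growth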
Protein RecA = biological target: T2, Protein RecA (Mycobacterium tuberculosis, UniProt P9WHJ3); assay: Fluorescence Cell-Free Homogeneous Dose Retest to Identify Inhibitors of RecA-Intein Splicing Activity. [Related pubchem assays (depositor defined):AID2097, AID2223, AID489010, AID492950]; assay type: functional
T2 sequence (P9WHJ3 whole entry): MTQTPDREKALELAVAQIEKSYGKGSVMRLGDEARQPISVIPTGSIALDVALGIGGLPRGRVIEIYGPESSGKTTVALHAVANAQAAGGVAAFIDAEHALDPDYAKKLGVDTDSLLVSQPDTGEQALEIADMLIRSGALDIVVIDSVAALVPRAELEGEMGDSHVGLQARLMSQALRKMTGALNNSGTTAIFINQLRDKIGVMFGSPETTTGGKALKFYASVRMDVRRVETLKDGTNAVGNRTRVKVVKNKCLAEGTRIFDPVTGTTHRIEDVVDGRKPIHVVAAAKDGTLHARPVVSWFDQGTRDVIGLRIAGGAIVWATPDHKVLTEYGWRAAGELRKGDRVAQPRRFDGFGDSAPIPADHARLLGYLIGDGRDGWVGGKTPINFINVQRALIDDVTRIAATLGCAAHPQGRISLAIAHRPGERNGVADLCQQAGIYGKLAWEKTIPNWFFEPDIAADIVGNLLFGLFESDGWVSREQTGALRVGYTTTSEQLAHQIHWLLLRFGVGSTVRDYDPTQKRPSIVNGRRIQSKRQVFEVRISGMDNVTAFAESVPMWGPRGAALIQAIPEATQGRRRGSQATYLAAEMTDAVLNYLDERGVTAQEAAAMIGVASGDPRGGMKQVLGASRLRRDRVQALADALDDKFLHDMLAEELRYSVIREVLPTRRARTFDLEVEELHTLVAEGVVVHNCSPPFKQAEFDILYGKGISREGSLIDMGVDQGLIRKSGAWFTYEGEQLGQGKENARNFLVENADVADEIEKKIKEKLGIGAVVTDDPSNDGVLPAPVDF

[1] = biological target: T3, Sentrin-specific protease 8 (Homo sapiens, UniProt Q96LD8); assay type: functional;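 further: luminescence read-out of SENP8 inhibition, dose-response confirmation following an ultra-high-throughput screen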
T3 sequence (Q96LD8 whole entry): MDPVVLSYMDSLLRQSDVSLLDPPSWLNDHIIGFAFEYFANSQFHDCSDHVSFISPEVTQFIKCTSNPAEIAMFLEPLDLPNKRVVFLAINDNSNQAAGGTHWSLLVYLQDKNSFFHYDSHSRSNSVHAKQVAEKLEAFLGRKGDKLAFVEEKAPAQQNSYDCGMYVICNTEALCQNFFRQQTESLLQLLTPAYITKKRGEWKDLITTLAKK

[2] = biological target: T4, Sentrin-specific protease 6 (Homo sapiens, UniProt Q9GZR1); assay type: functional;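 further: Luminescence-based dose-response confirmatory assay of SENP6 inhibition, following up an ultra-high-throughput screen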
T4 sequence (Q9GZR1 whole entry): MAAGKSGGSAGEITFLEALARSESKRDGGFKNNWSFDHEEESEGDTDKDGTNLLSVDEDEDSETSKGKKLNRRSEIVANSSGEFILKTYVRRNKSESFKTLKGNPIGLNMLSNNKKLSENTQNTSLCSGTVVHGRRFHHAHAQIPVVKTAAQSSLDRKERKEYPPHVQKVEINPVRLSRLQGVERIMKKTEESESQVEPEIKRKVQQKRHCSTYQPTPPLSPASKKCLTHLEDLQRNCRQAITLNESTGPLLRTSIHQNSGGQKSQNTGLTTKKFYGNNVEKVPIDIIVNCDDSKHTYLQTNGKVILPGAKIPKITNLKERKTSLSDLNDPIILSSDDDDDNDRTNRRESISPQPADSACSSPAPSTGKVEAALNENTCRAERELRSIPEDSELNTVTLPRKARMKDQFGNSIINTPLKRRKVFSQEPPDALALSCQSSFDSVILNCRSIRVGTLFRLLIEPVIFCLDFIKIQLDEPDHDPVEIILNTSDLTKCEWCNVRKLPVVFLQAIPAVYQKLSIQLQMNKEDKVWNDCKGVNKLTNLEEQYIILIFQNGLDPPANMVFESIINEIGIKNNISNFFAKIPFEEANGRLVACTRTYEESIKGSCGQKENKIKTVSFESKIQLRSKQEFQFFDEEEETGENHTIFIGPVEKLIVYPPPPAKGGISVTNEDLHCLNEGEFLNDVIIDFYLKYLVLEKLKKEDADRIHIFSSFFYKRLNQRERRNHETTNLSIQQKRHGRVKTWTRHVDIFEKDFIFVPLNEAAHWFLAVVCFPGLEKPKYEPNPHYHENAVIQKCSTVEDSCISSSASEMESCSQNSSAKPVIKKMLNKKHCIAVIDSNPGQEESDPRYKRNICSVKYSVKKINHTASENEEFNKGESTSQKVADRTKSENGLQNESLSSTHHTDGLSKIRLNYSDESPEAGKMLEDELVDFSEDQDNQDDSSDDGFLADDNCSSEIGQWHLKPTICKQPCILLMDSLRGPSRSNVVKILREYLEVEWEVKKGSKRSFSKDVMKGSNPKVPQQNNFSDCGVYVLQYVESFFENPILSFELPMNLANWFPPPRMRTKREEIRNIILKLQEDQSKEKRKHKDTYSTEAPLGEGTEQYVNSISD

Caspase-3 = biological target: T5, Caspase-3 (Homo sapiens, UniProt P42574); assay type: functional;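 further: Dose-response selectivity test against caspase-3 for candidate inhibitors of sentrin-specific proteases (SENPs)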
T5 sequence (P42574 whole entry): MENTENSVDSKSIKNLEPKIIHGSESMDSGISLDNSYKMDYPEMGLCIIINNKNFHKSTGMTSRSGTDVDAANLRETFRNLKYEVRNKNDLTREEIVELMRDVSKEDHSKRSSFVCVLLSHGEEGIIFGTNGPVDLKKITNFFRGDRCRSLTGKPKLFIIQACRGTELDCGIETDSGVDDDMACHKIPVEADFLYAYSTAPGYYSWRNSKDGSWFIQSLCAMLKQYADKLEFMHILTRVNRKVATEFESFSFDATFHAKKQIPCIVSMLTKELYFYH

SMILES	EC50 (Streptokinase A)	EC50 (Streptococcus)	EC50 (Protein RecA)	IC50 [1]	IC50 [2]	IC50 (Caspase-3)
CCC1CCCCN1S(=O)(=O)c1ccc(NC(=O)c2nc(S(C)(=O)=O)ncc2Cl)cc1 (configuration not stated)	0.66 µM (active)	13.2 µM (active)	1.11 µM (active)	–	–	–
CCCC[n+]1ccn(C2=C([N-]S(=O)(=O)c3ccc(Cl)cc3)C(=O)c3ccccc3C2=O)c1	–	–	–	38.2 µM (active)	12.4 µM (active)	55.7 µM (active)
CC(=O)c1cccc2c1N=C(c1[nH]c3ccccc3c1O)C2=O	116 µM (active)	> 150 µM (not active)	2.76 µM (active)	12.3 µM (active)	13.2 µM (active)	11.1 µM (active)
